We go through four compounds from PMC11546061, “Development and Evaluation of ABI-171, a New Fluoro-Catechin Derivative, for the Treatment of Idiopathic Pulmonary Fibrosis” (International Journal of Molecular Sciences, 2024).

Details of data set [1]: method as in PMID 36986543. Particulars: mouse, plasma, cited from earlier work.
For data set [2], the target named is DYRK1A (Homo sapiens, UniProt Q13627). Put plainly: DYRK1A kinase inhibition. The data set is classed as biochemical.
Data set [3] has as its system bleomycin-induced pulmonary fibrosis. Nature of the data set: Preventive bleomycin-induced IPF model (treatment from Day 0). The data set is classed as in vivo, C57BL/6 mice. Particulars: for body weight: Day 14 to 21 vs BLM model group, ABI compounds 60 mg/kg QD intranasal, pirfenidone 100 mg/kg oral thrice daily; for alveolitis and PF degrees (H&E and Masson staining): relative to bleomycin group; for hydroxyproline content in lung tissues: 21 days. From the text:
Consequently, we opted for intranasal delivery in our first IPF animal model, employing a validated BLM mouse model. […] The experiment considered the day of bleomycin injection as Day 0. […] The experiment was completed after 21 days.
In the preventive model, male C57BL/6 mice, aged 8–10 weeks, were used to simulate the early intervention scenario where treatment begins immediately following the induction of lung injury. […] On day 0, pulmonary fibrosis was induced by administering a single intratracheal infusion of bleomycin at a dose of 3 U/kg body weight, dissolved in 50 μL of sterile saline. Treatment with the test compounds commenced immediately after bleomycin administration and continued daily for 21 days. Body weight, survival rate, and clinical signs were monitored throughout the study.
At the end of the study period, the mice were sacrificed, and their lungs were harvested for histological and biochemical analyses. Lung tissues were fixed in 10% formalin and embedded in paraffin for histological examination using hematoxylin and eosin (H&E) staining to assess tissue morphology, and Masson’s trichrome staining to evaluate collagen deposition. Additionally, lung hydroxyproline content, a marker of collagen accumulation, was quantified using a colorimetric assay. Inflammatory cell infiltration was assessed by counting lymphocytes and neutrophils in bronchoalveolar lavage fluid (BALF).

In data set [4] the target is PIM2 (Homo sapiens, UniProt Q9P1W9). Nature of the data set: PIM2 kinase inhibition. The data set is classed as biochemical. From the text: Table 1 Best DYRK1A inhibitors. | column: PIM2 IC50
Chain of PIM2 (Q9P1W9 whole entry, species assumed): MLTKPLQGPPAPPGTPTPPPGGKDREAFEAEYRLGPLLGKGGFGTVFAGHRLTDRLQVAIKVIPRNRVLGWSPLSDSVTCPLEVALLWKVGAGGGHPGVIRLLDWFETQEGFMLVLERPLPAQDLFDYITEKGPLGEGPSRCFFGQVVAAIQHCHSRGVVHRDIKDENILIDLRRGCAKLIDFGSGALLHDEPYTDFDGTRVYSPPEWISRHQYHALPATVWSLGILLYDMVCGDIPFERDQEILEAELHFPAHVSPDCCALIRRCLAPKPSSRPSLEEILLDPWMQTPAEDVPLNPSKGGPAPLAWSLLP
For data set [5], the target named is PIM3 (Homo sapiens, UniProt Q86V86). Nature of the data set: PIM3 kinase inhibition. It counts as biochemical. From the text: Table 1 Best DYRK1A inhibitors. | column: PIM3 IC50
The target in data set [6] is PIM1 (Homo sapiens, UniProt P11309). Nature of the data set: PIM1 kinase inhibition. It counts as biochemical.
Chain of PIM1 (P11309 whole entry, species assumed): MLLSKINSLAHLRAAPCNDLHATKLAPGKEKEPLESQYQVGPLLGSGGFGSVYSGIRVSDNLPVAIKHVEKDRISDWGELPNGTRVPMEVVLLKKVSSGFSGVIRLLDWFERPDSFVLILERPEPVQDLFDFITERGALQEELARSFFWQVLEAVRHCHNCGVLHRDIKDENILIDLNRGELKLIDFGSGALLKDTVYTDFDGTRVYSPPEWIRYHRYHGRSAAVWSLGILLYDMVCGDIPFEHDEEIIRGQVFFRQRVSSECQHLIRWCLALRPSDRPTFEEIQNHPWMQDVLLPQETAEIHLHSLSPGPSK
The test system of data set [7] is bleomycin-induced pulmonary fibrosis. Nature of the data set: Therapeutic bleomycin-induced IPF model (treatment from Day 7). It counts as in vivo, C57BL/6 mice. From the text: In this study, drug treatment commenced 7 days post-induction of pulmonary fibrosis using BLM, employing a therapeutic model.
Pulmonary fibrosis was induced by a single intratracheal infusion of bleomycin at a dose of 3 U/kg body weight. Seven days post-bleomycin administration, when fibrosis was established, treatment with the test compounds commenced and continued daily for an additional 21 days.
Throughout the treatment period, body weight, survival rate, and clinical signs were monitored. At the study’s conclusion, mice were sacrificed, and their lungs were harvested for comprehensive histological and biochemical analyses. Lung tissues were processed for H&E and Masson’s trichrome staining to evaluate fibrosis and collagen deposition. Lung hydroxyproline content was measured to quantify collagen accumulation. Inflammatory cell infiltration in BALF was assessed by counting lymphocytes and neutrophils.

Data set [8] can be described thus: Pharmacokinetics and lung-tissue distribution after single IV, IN or PO dose. It counts as in vivo, C57BL/6 mice. As to the method:
Plasma concentrations were measured using LC-MS/MS, and PK parameters were calculated with WinNonlin. […] The formulation is based on the solubilizer and penetration enhancer (2-hydroxypropyl)-β-cyclodextrin (HP-β-CD), PEG-400, and water.
They were given a commercial mice chow and water ad libitum. The experiments started after acclimation for at least 1 week. Dosing solutions were made fresh. Fasted mice were administered the test drug by oral (PO), intranasal (IN), and intravenous (IV) routes. […] […] […] Blood was collected into K2EDTA microtubes, kept on ice all the time and centrifuged within 30 min of collection. Blood samples in EDTA vacuum tubes were centrifuged at 4 °C at 15,000× g for 4 min; ~250 µL of plasma was collected into polyethylene tubes containing 50 µL of the ascorbic acid (AA)/TCEP stabilizing solution (20 mM AA and 13 mM TCEP in 50 mM K2HPO4 buffer. The pH of the solution was adjusted to 6.5 using 2 M NaOH). After collection, the plasma samples were immediately snap-frozen in isopropanol/carbon-dioxide dry ice and stored at −80 °C until analysis.
Test catechin was extracted from the above-collected plasma through 3 successive additions of 350 µL of acetonitrile. The plasma and solvent mixture were vortex-mixed for 2 min then snap-frozen with isopropanol/carbon-dioxide dry ice and the extraction solvent was removed. The solvent fractions were pooled into a polyethylene tube kept on ice. The combined fractions were evaporated under a gentle stream of nitrogen at ambient temperature. The residue obtained after evaporation was reconstituted in 200 µL of 75 mM citric acid/25 mM ammonium acetate: acetonitrile (75:25, by vol), vortexed vigorously for 5 min, and 20 µL of the resulting solution was injected into the HPLC column. Lung tissue was collected and treated immediately to avoid product degradation. Within 5 min of extraction, about ~0.4 g of the tissue was homogenized with 1 mL of ice-cold 0.4 M sodium phosphate buffer containing 6 mg of ascorbic acid and 0.5 mg of Na2EDTA (final pH of 6.5). After centrifugation at 4 °C at 15,000× g for 4 min, the supernatant was collected into polyethylene tubes containing 50 µL of the AA/TCEP stabilizing solution (20 mM AA and 13 mM TCEP in 50 mM K2HPO4 buffer. The pH of the solution was adjusted to 6.5 using 2 M NaOH), immediately snap-frozen in isopropanol/carbon-dioxide dry ice and stored at −80 °C until analysis. Extraction was performed as described above for plasma.

Where [9] appears, read: vs BLM group, 60 mg/kg QD intranasal.
Where [10] appears, read: intranasal 50 mg/kg QD, from day 7 post-BLM.
The mark [11] stands for this setting: oral 100 mg/kg QD, from day 7 post-BLM.
The mark [12] stands for this setting: tissues from Group 4, vs BLM group.
Where [13] appears, read: C57BL/6, inhaled or intranasal, mouse, IN (60 mg/kg), lung.
The mark [14] stands for this setting: vs BLM group, 60 mg/kg QD intranasal, p < 0.05.
Setting [15] is: oral 100 mg/kg once daily, from day 7 post-BLM.
Where [16] appears, read: C57BL/6, mouse, IV (10 mg/kg), plasma.

Read-outs that look alike come from different tables or passages of the source.

Broadly, the IC50 is the point on the concentration scale where inhibition reaches its midpoint. Regarding `O=C(O[C@@H]1Cc2c(O)cc(O)cc2O[C@H]1c1cc(O)c(O)c(O)c1)c1c(F)c(O)c(O)c(O)c1F` [ABI-154], in data set [1] (PO (100 mg/kg)), the Tlast is 24 h. The half-maximal inhibitory concentration (IC50) turned out to be 28 nM in data set [2] (read-out: DYRK1A IC50), 1080 nM in data set [4], 6000 nM in data set [5] and 722 nM in data set [6]. For the same compound, the body weight result in data set [3] was “no body weight gain effect”. In addition, the “alveolitis and PF degrees (H&E and Masson staining)” value in data set [3] (60 mg/kg QD intranasal) is “decrease in the alveolitis and PF degrees”. Besides, the “hydroxyproline content in lung tissues” value in data set [3] (setting [9]) is given as “significantly decreased”.
As a reminder, the AUC(0-inf) is the area under the concentration-time curve extrapolated to infinity. Read a low AUC(0-inf) as low exposure. As usually defined, the AUC(0-t) is the area under the concentration-time curve up to a stated or last time point. High values mean high exposure, low ones low exposure. The term Tmax denotes the time from dosing to the highest level. The term half-life denotes the time needed for the level to fall by half in the phase considered. The low end stands for fast loss, the high end for slow loss. Turning to `COc1cc(C(=O)O[C@@H]2Cc3c(O)cc(O)cc3O[C@H]2c2cc(O)c(O)c(O)c2)c(F)c(O)c1O` [ABI-171], in data set [1] (IN (60 mg/kg)), the Tlast is 24 h. Moreover, in data set [1] (IV (5 mg/kg)), the “CL(IV)” value was 60 mL/min/kg and the “Vz(IV)” value was 17 L/kg. In data set [1] (PO (100 mg/kg)), the “CL/F (PO)” value was 101 mL/min/kg; the “F (absolute oral bioavailability, PO/IV)” value is given as 16%; the Tlast is given as 24 h; the “Vz/F (PO)” value was 15.6 L/kg. In addition, the IC50 in data set [2] (read-out: DYRK1A IC50) came to 73 nM. In data set [7] (day 21 of treatment), the “BLM-induced lung collagen level” value is recorded as “significant reductions” and the “BLM-induced lung fibronectin level” value is reported as “significant reductions”. Moreover, in data set [7] (setting [10]), the body weight entry was “good recovery in body weight” and the survival result is on record as “complete survival”. Besides, the “BLM-induced lung injuries, Masson's and H&E scores” value in data set [7] (intranasal 10 and 50 mg/kg, oral 100 mg/kg QD) is listed as “improvements”. Besides, in data set [7] (setting [11]), the body weight result is “good recovery in body weight” and the survival entry is reported as “complete survival”. For the same compound, the “E-cadherin levels in lung” value in data set [7] (oral treatment, tissues from Group 4) was “significantly elevated”. In data set [7] (setting [12]), the “PIM1 level in lung” value is reported as “significantly reduced”, the “Smad3 (p-Smad3) levels in lung” value was “significantly reduces”, the “Snail expression in lung” value is “reduce Snail expression” and the “αSMA level in lung” value is reported as “downregulating”. Further, in data set [8] (setting [13]), the area under the curve AUC(0-inf) was determined as 23200 ng·h/mL, the area under the curve AUC(0-t) worked out at 23100 ng·h/mL, the time of peak concentration (Tmax) came to 4 h and the half-life was 3.93 h. Moreover, the Cmax in data set [8] (C57BL/6, inhaled or intranasal, mouse, IN (60 mg/kg), lung, read-out: Cmax) worked out at 8740 ng/g. The same compound registered an AUC(0-t) in data set [8] (C57BL/6, mouse, PO (100 mg/kg), lung) of 214 ng·h/mL. In data set [8] (C57BL/6, mouse, PO (100 mg/kg), lung, read-out: Cmax), the Cmax is 231 ng/g. In addition, the Cmax in data set [8] (IN route (60 mg/kg), total not unbound drug, read-out: theoretical cellular concentration in the lungs at Cmax) was approximately 17.8 µM. The compound also yielded a Tlast in data set [8] (mouse, IN (60 mg/kg), lung) of 24 h. For the same compound, the Tlast in data set [8] (mouse, PO (100 mg/kg), lung) is 24 h. In addition, in data set [3], the body weight result is “significant increase in body weight”. In addition, in data set [3] (60 mg/kg QD intranasal), the “alveolitis and PF degrees (H&E and Masson staining)” value is “decrease in the alveolitis and PF degrees”. The “hydroxyproline content in lung tissues” value in data set [3] (setting [9]) was “significantly decreased”. For the same compound, in data set [3] (setting [14]), the “lymphocytes (BALF)” value was “significantly reduced” and the “neutrophils (BALF)” value is recorded as “significantly reduced”. Moreover, the IC50 in data set [4] was found to be 255 nM. For the same compound, the 50% inhibitory concentration (IC50) in data set [5] was 813 nM. In data set [6], half-maximal inhibition (IC50) required 87 nM.
Usually mortality stands for the percentage killed. With `O=C(O[C@@H]1Cc2c(O)cc(O)cc2O[C@@H]1c1cc(O)c(O)c(O)c1)c1cc(O)c(O)c(O)c1` [EGCG, Epigallocatechin gallate, reference compound], the IC50 in data set [2] worked out at 235 nM. Further, in data set [7] (setting [15]), the “activity in various assessments” value was “limited to moderate activity” and the mortality is reported as 50%. In data set [8] (C57BL/6, mouse, lung, po, 100 mg/kg, read-out: F (absolute oral bioavailability, PO/IV)), the bioavailability came out at 2%. Further, the Vd/F in data set [8] (C57BL/6, mouse, lung, po, 100 mg/kg, read-out: Vz/F (PO)) amounted to 2680 L/kg. Also, in data set [8] (setting [16]), the AUC(0-inf) was 1830 ng·h/mL, the area under the curve AUC(0-t) amounted to 1800 ng·h/mL and the half-life is 5.7 h. The Cmax in data set [8] (C57BL/6, mouse, IV (10 mg/kg), plasma, read-out: Cmax) was 4420 ng/mL. Besides, in data set [8] (C57BL/6, mouse, IV (10 mg/kg), plasma, read-out: Vz(IV)), the Vd was 45.2 L/kg. The compound also came in with a T1/2 in data set [8] (EGCG column, PO (100 mg/kg), head prints Lung) of 5 h. This compound also gave an IC50 in data set [6] of 1360 nM.
As for `Cc1ccc(=O)n(-c2ccccc2)c1` [pirfenidone, Pirfenidone, reference compound], the body weight result in data set [3] was “significant increase in body weight”.
